# Measured values reported in patent publication US8865624B2, “Inhibitor for tobacco axillary bud growth and method for inhibiting tobacco axillary bud growth” (SDS Biotech K.K., priority 2010, dated 2014).
# Read-outs that look alike come from different tables or passages of the source.
# Tests used:
# [1] = tested on: Tobacco Tsukuba 1 (flue-cured cultivar) axillary buds; test: Tobacco axillary bud growth inhibition test, flue-cured cultivar; format: in vivo, Nicotiana tabacum; details: for pest or weed control at 0.5 %: concentration of active ingredient 0.5%; for pest or weed control at 0.2 %: concentration of active ingredient 0.2%
# Procedure: (§1) Tobacco seedlings of Tsukuba 1 (flue-cured cultivar) and Michinoku 1 (burley cultivar) were transplanted to 1/5000a Wagner pots filled with Kureha garden nursery soil. The plants were grown in a glasshouse, and the floral axis parts were removed at the time of single-flower bloom of tobacco (top pruning).
# (§2) The formulations of the inhibitors for tobacco axillary bud growth obtained in Formulation Examples 1 to 10 above were each diluted with water to predetermined concentrations, and 20 ml of the water-diluted solutions of the respective inhibitors were separately sprayed using a contact-type axillary bud inhibitor spraying instrument equipped with a spot exhaust nozzle (Examples 1 to 11 and 12 to 22). In addition, butralin (trade name: Blue Ribbon) (Comparative Examples 1 and 3) and decyl alcohol (trade name: Contact) (Comparative Examples 2 and 4) were used for tests as comparative examples in the same manner as above. In the cases of both the flue-cured cultivar and burley cultivar, one plant was planted per pot, and the tests were carried out in duplicate.
# (§3) For the respective cases, states of inhibition of axillary bud growth 28 days after the spraying were investigated together with untreated groups sprayed with no inhibitor, and axillary bud growth inhibition ratios were calculated by the following equation. Axillary bud growth inhibition ratio=(fresh weight of axillary buds per plant of untreated group−fresh weight of axillary buds per plant of treated group)÷(fresh weight of axillary buds per plant of untreated group)×100 [Math. 1]
# (§4) The formulation of Formulation Example 1 (cafenstrole), Formulation Example 2 (thenylchlor) or Formulation Example 10 (propisochlor) above was diluted with water to predetermined concentrations and mixed with decyl alcohol (manufactured by Wako Pure Chemical Industries, Ltd.), 2-ethylhexanol (manufactured by Wako Pure Chemical Industries, Ltd.) or geraniol (manufactured by Wako Pure Chemical Industries, Ltd.) at predetermined concentrations, and the resultant was adjusted and used for tests (Examples 23 to 31 and 32 to 40). In addition, as comparative examples, the formulation of Formulation Example 1, […], or Formulation Example 10 diluted with water to predetermined concentrations (Comparative Examples 5 to 7 and 11 to 13) and decyl alcohol, 2-ethylhexanol or geraniol diluted with water to a predetermined concentration were used for tests (Comparative Examples 8 to 10 and 14 to 16).
# (§5) The respective inhibitors were sprayed in the same manner as in Test Example 1, and states of inhibition of axillary bud growth 28 days after the spraying were investigated together with untreated groups sprayed with no inhibitor. Then, axillary bud growth inhibition ratios were calculated.
# (§6) The formulation of Formulation Example 11 (cafenstrole), Formulation Example 12 (thenylchlor) or Formulation Example 13 (chlorthal-dimethyl) above was diluted with water to predetermined concentrations, and the resultant was mixed, adjusted and used for tests (Examples 41 to 58 and 59 to 76). In addition, as comparative examples, the formulation of Formulation Example 11, Formulation Example 12 or Formulation Example 13 diluted with water to predetermined concentrations (Comparative Examples 21 to 29 and 34 to 42), butralin (trade name: Blue Ribbon) (Comparative Examples 17, 18, 30, and 31) and decyl alcohol (trade name: Contact) (Comparative Examples 19, 20, 32, and 33) were used for tests in the same manner as above.
# [2] = tested on: Tobacco Michinoku 1 (burley cultivar) axillary buds; test: Tobacco axillary bud growth inhibition test, burley cultivar; format: in vivo; details: Nicotiana tabacum, 672 h, 28 days after the spraying; for pest or weed control at 0.5 %: concentration of active ingredient 0.5%; for pest or weed control at 0.1 %: concentration of active ingredient 0.1%; for pest or weed control at 0.35 %: concentration of active ingredient 0.35%; for pest or weed control at 0.03 %: concentration of active ingredient 0.03%; for pest or weed control at 0.05 %: concentration of active ingredient 0.05%; for pest or weed control at 0.2 %: concentration of active ingredient 0.2%; for pest or weed control at 2.6 %: concentration of active ingredient 2.6%
# Procedure: as §1, §2, §3, §4, §5, §6
# [3] = tested on: Tobacco Tsukuba 1 (flue-cured cultivar) leaves (first to fourth leaves from the top); test: Harmful effect of inhibitor on tobacco leaves, flue-cured cultivar; format: in vivo, Nicotiana tabacum
# Procedure: as §1, §2
# (§7) Further, the presence or absence of the harmful effect of each inhibitor was evaluated in one of the following four categories depending on the degrees of growth inhibition, gangrene, change in color, deformation and the like of leaves (first to fourth leaves from the top).
# (§8) Large: A severely harmful effect was observed.
# (§9) Middle: A clearly harmful effect was observed.
# (§10) Small: A slightly harmful effect was observed.
# (§11) Absent: No harmful effect was observed.
# as §6, §5
# [4] = tested on: Tobacco Michinoku 1 (burley cultivar) leaves (first to fourth leaves from the top); test: Harmful effect of inhibitor on tobacco leaves, burley cultivar; format: in vivo, Nicotiana tabacum
# Procedure: as §1, §2, §7, §8, §9, §10, §11, §6, §5
# [5] = Nicotiana tabacum, 672 h, Table 3, flue-cured cultivar, 28 days after the spraying, read-out: Axillary bud growth inhibition ratio
# [6] = Table 4, burley cultivar, read-out: Axillary bud growth inhibition ratio
# [7] = Nicotiana tabacum, 672 h, Table 1, flue-cured cultivar, concentration of active ingredient 0.1%, 28 days after the spraying, read-out: Axillary bud growth inhibition ratio
# [8] = Table 2, burley cultivar, read-out: Axillary bud growth inhibition ratio
# [9] = Table 1, flue-cured cultivar, concentration of active ingredient 0.1%
# [10] = Table 2, burley cultivar, concentration of active ingredient 0.1%
# [11] = Nicotiana tabacum, 672 h, read-out: Axillary bud growth inhibition ratio
# [12] = read-out: Axillary bud growth inhibition ratio, Table 2, burley cultivar
# [13] = read-out: Axillary bud growth inhibition ratio, Table 6, burley cultivar
# [14] = Table 6, burley cultivar, read-out: Axillary bud growth inhibition ratio
compound,measurement,setting,value
"CCCCC(CC)CO (centres unmarked) [2-Ethylhexanol, 2-ethylhexanol]",pest or weed control at 0.5 %,[1]; [5],21%
same,pest or weed control at 0.5 %,[2]; [6],34%
"CCc1cccc(CC)c1N(COC)C(=O)CCl [Alachlor, alachlor]",pest or weed control at 0.1 %,[1]; [7],97%
same,pest or weed control at 0.1 %,[2]; [8],91%
same,Harmful effect of inhibitor,[3]; [9],Absent
same,Harmful effect of inhibitor,[4]; [10],Absent
"CCCCOCN(C(=O)CCl)c1c(CC)cccc1CC [Butachlor, butachlor]",pest or weed control at 0.1 %,[1]; [7],100%
same,pest or weed control at 0.1 %,[2]; [8],96%
same,Harmful effect of inhibitor,[3]; in vivo,Absent
same,Harmful effect of inhibitor,[4]; in vivo,Absent
"CCC(C)Nc1c([N+](=O)[O-])cc(C(C)(C)C)cc1[N+](=O)[O-] (centres unmarked) [Butralin, butralin]",pest or weed control at 0.03 %,[1]; [11],44%
same,pest or weed control at 0.35 %,[1]; [11],98%
same,Axillary bud growth inhibition ratio,"[1]; Table 5, flue-cured cultivar, concentration of active ingredient 0.35%, 28 days after the spraying",98%
same,pest or weed control at 0.35 %,[2]; [12],96%
same,pest or weed control at 0.03 %,[2]; [13],48%
same,pest or weed control at 0.35 %,[2]; [13],97%
CCN(CC)C(=O)n1cnc(S(=O)(=O)c2c(C)cc(C)cc2C)n1 [Cafenstrole],pest or weed control at 0.002 %,[1]; [11],17%
same,pest or weed control at 0.005 %,[1]; [11],20%
same,pest or weed control at 0.01 %,[1]; [11],23%
same,pest or weed control at 0.05 %,[1]; [11],76%
same,pest or weed control at 0.1 %,[1]; [11],100%
same,pest or weed control at 0.1 %,[2]; [12],99%
same,pest or weed control at 0.05 %,"[2]; read-out: Axillary bud growth inhibition ratio, Table 4, burley cultivar",72%
same,pest or weed control at 0.002 %,"[2]; read-out: Axillary bud growth inhibition ratio, Table 6, burley cultivar, concentration of active ingredient 0.002%",15%
same,pest or weed control at 0.005 %,"[2]; read-out: Axillary bud growth inhibition ratio, Table 6, burley cultivar, concentration of active ingredient 0.005%",19%
same,pest or weed control at 0.01 %,"[2]; read-out: Axillary bud growth inhibition ratio, Table 6, burley cultivar, concentration of active ingredient 0.01%",25%
same,Harmful effect of inhibitor,[3]; [9],Absent
same,Harmful effect of inhibitor,"[3]; Table 5, flue-cured cultivar, concentration of active ingredient 0.002%",Absent
same,Harmful effect of inhibitor,"[3]; Table 5, flue-cured cultivar, concentration of active ingredient 0.005%",Absent
same,Harmful effect of inhibitor,"[3]; Table 5, flue-cured cultivar, concentration of active ingredient 0.01%",Absent
same,Harmful effect of inhibitor,[4]; [10],Absent
same,Harmful effect of inhibitor,"[4]; Table 6, burley cultivar, concentration of active ingredient 0.002%",Absent
same,Harmful effect of inhibitor,"[4]; Table 6, burley cultivar, concentration of active ingredient 0.005%",Absent
same,Harmful effect of inhibitor,"[4]; Table 6, burley cultivar, concentration of active ingredient 0.01%",Absent
"COC(=O)c1c(Cl)c(Cl)c(C(=O)OC)c(Cl)c1Cl [Chlorthal-dimethyl, chlorthal-dimethyl]",pest or weed control at 0.05 %,"[1]; Nicotiana tabacum, 672 h, Table 5, flue-cured cultivar, concentration of active ingredient 0.05%, 28 days after the spraying, read-out: Axillary bud growth inhibition ratio",43%
same,pest or weed control at 0.1 %,"[1]; Nicotiana tabacum, 672 h, Table 5, flue-cured cultivar, concentration of active ingredient 0.1%, 28 days after the spraying, read-out: Axillary bud growth inhibition ratio",78%
same,pest or weed control at 0.2 %,"[1]; Nicotiana tabacum, 672 h, Table 5, flue-cured cultivar, 28 days after the spraying, read-out: Axillary bud growth inhibition ratio",88%
same,pest or weed control at 0.05 %,[2]; [14],39%
same,pest or weed control at 0.1 %,[2]; [14],71%
same,pest or weed control at 0.2 %,[2]; [14],82%
same,Harmful effect of inhibitor,[3]; in vivo,Absent
same,Harmful effect of inhibitor,[4]; in vivo,Absent
"CCCCCCCCCCO [Decyl alcohol, decyl alcohol]",pest or weed control at 2.6 %,"[1]; Nicotiana tabacum, 672 h, Table 1, flue-cured cultivar, concentration of active ingredient 2.6%, 28 days after the spraying, read-out: Axillary bud growth inhibition ratio",91%
same,pest or weed control at 0.5 %,[1]; [5],42%
same,pest or weed control at 0.03 %,"[1]; Nicotiana tabacum, 672 h, Table 5, flue-cured cultivar, concentration of active ingredient 0.03%, 28 days after the spraying, read-out: Axillary bud growth inhibition ratio",0%
same,Axillary bud growth inhibition ratio,"[1]; Table 5, flue-cured cultivar, concentration of active ingredient 2.6%, 28 days after the spraying",91%
same,pest or weed control at 2.6 %,[2]; [8],92%
same,pest or weed control at 0.5 %,[2]; [6],46%
same,pest or weed control at 0.03 %,[2]; [14],0%
same,pest or weed control at 2.6 %,[2]; [14],94%
"COCC(C)N(C(=O)CCl)c1c(C)csc1C (centres unmarked) [Dimethenamid, dimethenamid]",pest or weed control at 0.1 %,[1]; [7],92%
same,pest or weed control at 0.1 %,[2]; [8],94%
same,Harmful effect of inhibitor,[3]; in vivo,Absent
same,Harmful effect of inhibitor,[4]; in vivo,Absent
"CCN(C(=O)n1nnn(-c2ccccc2Cl)c1=O)C1CCCCC1 [Fentrazamide, fentrazamide]",pest or weed control at 0.1 %,[1]; [7],94%
same,pest or weed control at 0.1 %,[2]; [8],92%
same,Harmful effect of inhibitor,[3]; [9],Absent
same,Harmful effect of inhibitor,[4]; [10],Absent
"CC(C)=CCC/C(C)=C/CO [Geraniol, geraniol]",pest or weed control at 0.5 %,[1]; [5],30%
same,pest or weed control at 0.5 %,[2]; [6],28%
CCC1(CC2(c3cccc(Cl)c3)CO2)C(=O)c2ccccc2C1=O (centres unmarked) [Indanofan],pest or weed control at 0.1 %,[1]; [7],100%
same,pest or weed control at 0.1 %,[2]; [8],95%
same,Harmful effect of inhibitor,[3]; in vivo,Absent
same,Harmful effect of inhibitor,[4]; in vivo,Absent
"CCc1cccc(C)c1N(C(=O)CCl)C(C)COC (centres unmarked) [Metolachlor, metolachlor]",pest or weed control at 0.1 %,[1]; [7],95%
same,pest or weed control at 0.1 %,[2]; [8],91%
same,Harmful effect of inhibitor,[3]; [9],Absent
same,Harmful effect of inhibitor,[4]; [10],Absent
CCCOCCN(C(=O)CCl)c1c(CC)cccc1CC [Pretilachlor],pest or weed control at 0.1 %,[1]; [7],93%
same,pest or weed control at 0.1 %,[2]; [8],92%
same,Harmful effect of inhibitor,[3]; [9],Absent
same,Harmful effect of inhibitor,[4]; [10],Absent
"CCc1cccc(C)c1N(COC(C)C)C(=O)CCl [Propisochlor, propisochlor]",pest or weed control at 0.1 %,[1]; [7],86%
same,pest or weed control at 0.2 %,"[1]; Nicotiana tabacum, 672 h, Table 1, flue-cured cultivar, 28 days after the spraying, read-out: Axillary bud growth inhibition ratio",98%
same,Axillary bud growth inhibition ratio,"[1]; Table 3, flue-cured cultivar, concentration of active ingredient 0.1%, 28 days after the spraying",86%
same,pest or weed control at 0.1 %,[2]; [8],84%
same,pest or weed control at 0.2 %,[2]; [8],95%
same,pest or weed control at 0.1 %,[2]; [6],83%
same,Harmful effect of inhibitor,[3]; in vivo,Absent
same,Harmful effect of inhibitor,[4]; in vivo,Absent
